Reference: paper PMC8777605 (Pharmaceuticals, 2021)
“Also recorded” adds a separate entry of the source. Read-outs that look alike come from different tables or passages of the source.

Tests used:
Cytotoxic assay = format: cell-based; settings: African green monkey, table title says Calu-3 cells, method says Vero cells
Protocol: All experiments were carried out at least three independent times and each data was analyzed from Prism GraphPad software 8.0 (Windows GraphPad Software, San Diego, CA, USA). The results were presented as mean ± standard deviation (SD).

[1] = test system: SARS-CoV-2 gamma strain (P1, B.1.1.28)
[2] = test system: SARS-CoV-2 gamma strain (P1, B.1.1.28); test: microbe, parasite or virus in culture; settings: Severe acute respiratory syndrome coronavirus 2, Calu-3, 48 h
[3] = target: T1, SARS-CoV-2 main protease (M^pro) (Severe acute respiratory syndrome coronavirus 2, UniProt P0DTD1); test: biochemical
T1 construct: purchased BPS Bioscience #79955-1
Protocol: (§1) Fluorescence signal was measured at an emission wavelength of 460 nm with excitation at 360 nm in a GloMax® (Promega, Madison, WI, USA) plate reader. Morrison’s inhibitory constant (Ki) was calculated by non-linear regression using GraphPad Prism 9. […] After fluorescence quantification, the Michaelis–Menten constant (Km) and maximum velocity (Vmax) were calculated by non-linear regression using GraphPad Prism 9. The value was presented as mean ± standard deviation (SD).

[4] = target: T2, SARS-CoV-2 papain-like protease (PL^pro) (Severe acute respiratory syndrome coronavirus 2, UniProt P0DTD1); test: SARS-CoV-2 PL^pro enzymatic assay (BPS Bioscience kit); format: biochemical
T2 construct: purchased BPS Bioscience #79995-1
Protocol: as §1

SARS-CoV-2 B.1 lineage = test: microbe, parasite or virus in culture; format: cell-based
[5] = Pharmacokinetics in plasma and lungs after oral dosing; format: in vivo, Swiss–Webster mice; settings: mice, 60 mg/kg oral
Protocol: Each treatment group had five animals. After these periods of times, total blood and lungs were collected. Plasma was obtained by blood centrifugation at 8000× g for 15 min. Time zero was obtained by analyzing the matrix pool (blood plasma) of untreated animals. The pharmacokinetic parameters of half-life (t1/2, h), time until maximum concentration is reached (tmax, h), maximum compound concentration (Cmax, ng/mL) and area under the curve (AUC, h.ng/mL) were determined. The experiments performed in this section were approved by the Committee on the Use of Laboratory Animals of the Oswaldo Cruz Foundation (CEUA-FIOCRUZ, license L003/21).

SARS-CoV-2 gamma strain = format: in vivo, K18-hACE2 mice
[6] = test system: human platelet-poor plasma clotting; test: Plasma clotting time (fibrin formation); settings: three concentrations of ATV, Figure S3
Protocol: Human blood samples were collected from healthy donors in 3.8% trisodium citrate (9:1, v/v), and platelet-poor plasma was obtained by centrifugation at 3000 rpm for 10 min. […] Time for clot formation was recorded in triplicates.

## CCC(CC)COC(=O)[C@H](C)N[P@](=O)(OC[C@H]1O[C@@](C#N)(c2ccc3c(N)ncnn23)[C@H](O)[C@@H]1O)Oc1ccccc1 [RDV, remdesivir]
Cytotoxic assay
  CC50 at 3 days: 512000 ± 30000 nM
[1]
  SI (CC50/EC50): 4530
[2]
  EC50: 113 ± 10 nM

## COC(=O)N[C@H](C(=O)N[C@@H](Cc1ccccc1)[C@@H](O)CN(Cc1ccc(-c2ccccn2)cc1)NC(=O)[C@@H](NC(=O)OC)C(C)(C)C)C(C)(C)C [ATV, atazanavir]
[3]
  Ki: 703 ± 79 nM
[3]; 2.5 μM ATV versus absence
  Increase of M^pro's Km by the inhibitor: more than sixfold
[3]; Vmax not different, Km increased
  Inhibition profile (mechanism): competitive inhibition profile
[3]; in the presence of 2.5 μM ATV, substrate 0–100 μM
  Maximum velocity (Vmax) of M^pro: 24.94 ± 3.70 µM/min
[4]; 0–10 μM
  Inhibition of PL^pro (in words): did not inhibit; also recorded: above the threshold of in vitro inhibition
[4]; 100 nM PL^pro, 25 μM substrate, 45–60 min, 0–10 μM inhibitor, read-out: Morrison's inhibitory constant (Ki)
  Ki: 9870 nM
SARS-CoV-2 B.1 lineage
  EC50: 321 ± 16 nM
SARS-CoV-2 B.1 lineage; Severe acute respiratory syndrome coronavirus 2, Calu-3, 48 h
  EC50: 490 ± 20 nM
Cytotoxic assay
  CC50 at 3 days: 312000 ± 8000 nM
[5]; Swiss-Webster, mouse, plasma
  AUC: 14300 ng·h/mL
  Cmax: 7430 ng/mL
  Tmax: 1 h
  half-life: 9.9 h
[5]; AUC lung versus plasma
  Distribution to the lung: concentrated in the lung
SARS-CoV-2 gamma strain; 60 mg/kg oral daily
  Body weight, treated versus untreated infected mice: not a statical difference
  Lung injury (hemorrhage, shrinking of lobe, bronchiole and alveoli), histology: reduced
  SARS-CoV-2-induced IL-6 levels in the BAL and in the lungs: reduced
SARS-CoV-2 gamma strain; 60 mg/kg oral daily, compared to untreated mice
  Levels of IL-6, TNF-a, KC and PF4 in the BAL: lower levels
SARS-CoV-2 gamma strain; mouse, in vivo
  Animal survival (in words): statistically significant increase
  Cell death (LDH activity) in BAL: significantly decreased
  Enhancement of survival: 30%
  Polymorphonuclear and mononuclear cell counts in BAL: significantly decreased
  SARS-CoV-2 RNA levels in BAL: significantly decreased
[6]
  Anti-clotting activity: could not prevent hemorrhage as an anti-clotting agent
[2]
  EC50: 399 ± 20 nM
